Test results: PMC10174317, “^18F-labeled FGFR1 peptide: a new PET probe for subtype FGFR1 receptor imaging” (Frontiers in Oncology, 2023)
Primed or numbered codes have the meaning given here. Where no end group is shown, it is not given here. The star is where a group is joined. NOTA = O=C(O)CN1CCN(CC(=O)O)CCN(CC(=O)*)CC1; PEG2′ = not defined here

T1: FGFR1 (Homo sapiens, UniProt P11362)
T1 chain: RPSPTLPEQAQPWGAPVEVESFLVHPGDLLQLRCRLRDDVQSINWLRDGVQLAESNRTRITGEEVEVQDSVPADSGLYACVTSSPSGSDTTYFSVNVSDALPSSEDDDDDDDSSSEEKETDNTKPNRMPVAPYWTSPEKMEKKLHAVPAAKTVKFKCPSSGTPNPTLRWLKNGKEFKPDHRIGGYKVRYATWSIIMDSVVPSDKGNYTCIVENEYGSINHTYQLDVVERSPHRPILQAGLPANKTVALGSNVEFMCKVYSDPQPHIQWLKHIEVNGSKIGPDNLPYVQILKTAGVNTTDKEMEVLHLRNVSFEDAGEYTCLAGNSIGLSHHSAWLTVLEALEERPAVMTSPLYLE


Assays:
[1] = tested on: FGFR1; conditions: preclinical studies; higher affinity for FGFR1 than for other FGFR subtypes; cited from earlier work
Description: To assess FGFR aberration status, tissue specimens generally need to be collected via invasive procedures, such as surgery or biopsy. These approaches may be limited by heterogeneity, tumor stage, the invasiveness of the procedure, long operating time and the functional status of patients’ major organs. To overcome the inconvenience of invasive operations, molecular imaging has emerged as a noninvasive method to detect FGFR expression in tumors at the cellular or subcellular level ([23]–[25]), which are different from traditional anatomic imaging. […].

[2] = biological target: T1, FGFR1; assay: saturation binding assay on RT-112 cells (radioligand)

Kd [2] | Molecule | IC50 [1]
– | AZD4547 | < 1 nM
190 nM | {NOTA-PEG2′}-KAEWKSLGEEAWHSK (also: Al18F complexed by NOTA) [[18F]F-FGFR1 peptide (NOTA-PEG2-KAEWKSLGEEAWHSK)] | –
